Test results: patent US9914869B2, “System and method for inhibiting scale formation in oil wells” (GLOBAL GREEN PRODUCTS LLC, priority 2012, dated 2018)

Test: Scale inhibitor comparison: static bottle test (barium sulfate) and dynamic tube block test (calcium carbonate)
Conditions: barium sulfate / calcium carbonate scale inhibition; table does not say which scale
Source text: These types of chemistries may be used as a comparison when evaluating one or more new scale inhibitors, such as the various aspartic acid based polymers.

| Molecule | Approximate effective Concentration |
| --- | --- |
| O=P(O)(O)CN(CCCCCCN(CP(=O)(O)O)CP(=O)(O)O)CCCCCCN(CP(=O)(O)O)CP(=O)(O)O [BHMT Phosphonate] | 2 ppm |
| diethylenetriamine (DETA) phosphonates [DETA Phosphonate] | 2 ppm |
